# Values quoted from earlier work as cited in US8198303B2, “Methods of use and compositions for the diagnosis and treatment of infectious diseases” (Sequella, Inc., priority 2002, dated 2012).
# Test system: M. tuberculosis
# Conditions: background statement on ethambutol
structure (smiles),measurement,value
"CC[C@@H](CO)NCCN[C@@H](CC)CO [ethambutol, Ethambutol]",Minimum Inhibition Concentration (MIC),about 5 μg/ml
